One test has as its target T1, 5HT2B receptors (Homo sapiens, UniProt P41595).
T1 construct: expressed in transfected cells; host or cells: CHO-K1 cells
The test is described as follows: Human 5-HT2B functional high throughput screening assay in CHO-K1 cells (calcium flux). Particulars: for EC50: CHO-K1 cells, calcium flux; call rule not given here. It is filed as cell-based. A digest of the protocol: (§1)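 Serum-starved CHO-K1 cells carrying the receptor; Ca4 dye, 60 min RT. Test compound added after a 10 s baseline, fluorescence followed for 3 min. EC50 from 4-parameter fit; Emax given as % of serotonin effect.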
(In general: Calcium assays in cells follow changes in intracellular calcium, usually with a dye or a luminescent sensor.)

In the next test the target is T2, 5HT2C receptors (Homo sapiens, UniProt P28335).
T2 sequence (P28335 33-458): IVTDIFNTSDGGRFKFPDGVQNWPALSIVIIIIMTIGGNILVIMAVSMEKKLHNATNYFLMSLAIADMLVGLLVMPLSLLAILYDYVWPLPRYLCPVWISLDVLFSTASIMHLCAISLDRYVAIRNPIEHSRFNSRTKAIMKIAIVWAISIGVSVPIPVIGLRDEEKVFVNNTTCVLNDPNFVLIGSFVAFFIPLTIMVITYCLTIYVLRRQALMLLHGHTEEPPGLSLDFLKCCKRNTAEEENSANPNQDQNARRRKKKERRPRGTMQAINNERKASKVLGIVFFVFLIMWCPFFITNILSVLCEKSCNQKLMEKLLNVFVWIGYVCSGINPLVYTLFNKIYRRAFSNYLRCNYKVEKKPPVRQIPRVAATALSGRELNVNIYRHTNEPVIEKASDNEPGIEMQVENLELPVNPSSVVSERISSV
The test is described as follows: Human 5-HT2C functional high throughput screening assay in CHO-K1 cells (calcium flux). It is filed as cell-based. More on the design: expressed in transfected cells; host or cells: CHO-K1 cells. Particulars: for EC50: CHO-K1 cells, calcium flux; for Emax: CHO-K1. The method in brief: as §1

Setting [1] is: 5-HT2B agonist activity, read-out: EC50.
[2] abbreviates: 5-HT2B, maximum functional response as percentage relative to the effect of serotonin.
[3] abbreviates: 5-HT2C agonist activity, read-out: EC50.
Where [4] appears, read: 5-HT2C, maximum functional response as percentage relative to the effect of serotonin, read-out: Emax.
The mark [5] stands for this setting: 5-HT2C, maximum functional response as percentage relative to the effect of serotonin.

The structures appear in SMILES notation. Where two headings read alike, the source gives them in different places.

T1 sequence (P41595 whole entry): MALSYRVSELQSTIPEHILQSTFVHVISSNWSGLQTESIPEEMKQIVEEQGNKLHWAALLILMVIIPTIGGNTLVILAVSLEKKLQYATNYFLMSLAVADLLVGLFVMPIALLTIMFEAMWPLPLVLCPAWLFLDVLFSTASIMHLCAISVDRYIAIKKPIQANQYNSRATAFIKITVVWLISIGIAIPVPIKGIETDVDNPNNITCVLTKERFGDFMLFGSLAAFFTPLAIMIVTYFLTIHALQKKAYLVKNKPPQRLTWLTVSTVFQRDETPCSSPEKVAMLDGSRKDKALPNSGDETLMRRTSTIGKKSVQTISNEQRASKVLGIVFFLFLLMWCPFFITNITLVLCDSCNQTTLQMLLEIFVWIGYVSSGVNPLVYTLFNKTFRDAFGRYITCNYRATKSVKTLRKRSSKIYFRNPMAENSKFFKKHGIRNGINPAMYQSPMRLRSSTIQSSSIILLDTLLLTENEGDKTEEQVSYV

As for `CNC(=O)c1cccc(-c2ccc3c(c2)C(=O)NC[C@@H]2CNC[C@@H]32)c1` (relative stereo) [Example 381, N-Methyl-3-[trans-6-oxo-1,2,3,3a,4,5,6,10b-octahydropyrrolo[3,4-d][2]benzazepin-8-yl]benzamide], the half-maximal effective concentration (EC50) (as a rule, the concentration giving half of the maximal effect) was more than 10000 nM on 5HT2B receptors (setting [1]) and 10 nM on 5HT2C receptors (setting [3]). The values for the maximal response (Emax) result at 5HT2B receptors (setting [2]) and at 5HT2C receptors (setting [4]) were “inactive” and 105%, respectively.

Turning to `CNC(=O)c1cccc(-c2ccc3c(c2)C(=O)NC[C@@H]2CN(C)C[C@@H]32)c1` (relative stereo) [Example 382, N-Methyl-3-[Trans-2-methyl-6-oxo-1,2,3,3a,4,5,6,10b-octahydropyrrolo[3,4-d][2]benzazepin-8-yl]benzamide], the figures for the EC50 on 5HT2B receptors (setting [1]) and at 5HT2C receptors (setting [3]) were more than 10000 nM and 90 nM, respectively. Moreover, the Emax (as a rule, the size of the effect at its maximum, as opposed to the concentration needed) was “inactive” at 5HT2B receptors (setting [2]) and 100% on 5HT2C receptors (setting [4]).

Turning to `Brc1cccc2c1OCC[C@H]1CNC[C@H]21` (relative stereo) [Example 383, Trans-7-bromo-2,3,3a,4,5,10b-hexahydro-1H-[1]benzoxepino[4,5-c]pyrrole], the Emax at 5HT2B receptors (CHO-K1) was determined as 100%; on 5HT2C receptors (setting [5]) it was 105%. For the same molecule, the half-maximal effective concentration (EC50) turned out to be 6 nM on 5HT2B receptors (EC50, 5-HT2B agonist activity) and 0.04 nM at 5HT2C receptors (EC50, 5-HT2C agonist activity).

Take `O=C1NC[C@@H]2CN(CCF)C[C@H]2c2ccc(-c3ccc(F)cc3)cc21` (relative stereo) [Example 384, Trans-2-(2-fluoroethyl)-8-(4-fluorophenyl)-2,3,3a,4,5,10b-hexahydropyrrolo[3,4-d][2]benzazepin-6(1H)-one]: the Emax entry was “inactive” on 5HT2B receptors and 85% on 5HT2C receptors. Moreover, the figures for the EC50 on 5HT2B receptors (setting [1]) and at 5HT2C receptors (setting [3]) were more than 10000 nM and 40 nM, respectively.

`O=C1NC[C@@H]2CNC[C@H]2c2ccc(-c3ccsc3Cl)cc21` (relative stereo) [Example 385, Trans-8-(2-chloro-3-thienyl)-2,3,3a,4,5,10b-hexahydropyrrolo[3,4-d][2]benzazepin-6(1H)-one]: the 50% effective concentration (EC50) was more than 10000 nM at 5HT2B receptors (setting [1]) and 0.3 nM on 5HT2C receptors (setting [3]). The maximum response (Emax) entry at 5HT2B receptors (setting [2]) is “inactive”; at 5HT2C receptors (setting [4]), 95%.

Regarding `CN1C[C@H]2CNC(=O)c3cc(-c4ccsc4Cl)ccc3[C@@H]2C1` (relative stereo) [Example 387, Trans-8-(2-chloro-3-thienyl)-2-methyl-2,3,3a,4,5,10b-hexahydropyrrolo[3,4-d][2]benzazepin-6(1H)-one], the EC50 is more than 10000 nM at 5HT2B receptors (setting [1]) and 6 nM on 5HT2C receptors (setting [3]). Also, the Emax entry was “inactive” at 5HT2B receptors (setting [2]) and 95% on 5HT2C receptors (setting [4]).

Regarding `c1ccc2c(c1)NCC[C@@H]1CNC[C@@H]21` (relative stereo) [Example 389, Trans-1,2,3,3a,4,5,6,10b-octahydropyrrolo[3,4-d][1]benzazepine], the half-maximal effective concentration (EC50) at 5HT2B receptors (setting [1]) was 400 nM; on 5HT2C receptors (setting [3]), 900 nM. For the same molecule, the Emax on 5HT2B receptors (CHO-K1) stood at 70%; on 5HT2C receptors (setting [5]), 95%.

For `CN1C[C@H]2CNC(=O)c3cc(-c4ccc5c(c4)C(=O)CCO5)ccc3[C@@H]2C1` (relative stereo) [Example 390, Trans-2-methyl-8-(4-oxo-3,4-dihydro-2H-chromen-6-yl)-2,3,3a,4,5,10b-hexahydropyrrolo[3,4-d][2]benzazepin-6(1H)-one], the concentration giving a half-maximal response (EC50) on 5HT2B receptors (setting [1]) was more than 10000 nM; on 5HT2C receptors (setting [3]), 8 nM. The Emax entry is “inactive” on 5HT2B receptors (setting [2]) and 90% on 5HT2C receptors (setting [4]).

Consider `Clc1ccc2c(c1)[C@@H]1CNC[C@H]1CCN2` (relative stereo) [Example 391, Trans-9-chloro-1,2,3,3a,4,5,6,10b-octahydropyrrolo[3,4-d][1]benzazepine], for which the results for the Emax at 5HT2B receptors (CHO-K1) and on 5HT2C receptors (setting [5]) were 70% and 90%, respectively. The EC50 at 5HT2B receptors (EC50, 5-HT2B agonist activity) stood at 20 nM; at 5HT2C receptors (EC50, 5-HT2C agonist activity), 90 nM.

Regarding `Clc1cccc2c1NCC[C@@H]1CNC[C@@H]21` (relative stereo) [Example 392, Trans-7-chloro-1,2,3,3a,4,5,6,10b-octahydropyrrolo[3,4-d][1]benzazepine], the Emax is 65% at 5HT2B receptors (CHO-K1) and 100% on 5HT2C receptors (setting [5]). In addition, the EC50 came out at 40 nM on 5HT2B receptors (EC50, 5-HT2B agonist activity) and 0.7 nM at 5HT2C receptors (EC50, 5-HT2C agonist activity).

Take `Clc1cc(Br)c2c(c1)[C@@H]1CNC[C@@H]1CCO2` (relative stereo) [Example 393, Cis-7-bromo-9-chloro-2,3,3a,4,5,10b-hexahydro-1H-[1]benzoxepino[4,5-c]pyrrole]: the Emax on 5HT2B receptors (CHO-K1) is 20%; on 5HT2C receptors (setting [5]), 60%. Moreover, the EC50 came to 100 nM on 5HT2B receptors (EC50, 5-HT2B agonist activity) and 200 nM on 5HT2C receptors (EC50, 5-HT2C agonist activity).

Take `Clc1cc(Br)c2c(c1)[C@H]1CNC[C@@H]1CCO2` (relative stereo) [Example 394, Trans-7-bromo-9-chloro-2,3,3a,4,5,10b-hexahydro-1H-[1]benzoxepino[4,5-c]pyrrole]: the results for the Emax at 5HT2B receptors (CHO-K1) and on 5HT2C receptors (setting [5]) were 45% and 90%, respectively. Further, the EC50 stood at 100 nM at 5HT2B receptors (EC50, 5-HT2B agonist activity) and 20 nM at 5HT2C receptors (EC50, 5-HT2C agonist activity).

Consider `CN1C[C@H]2CCN(C)c3ccc(Cl)cc3[C@@H]2C1` (relative stereo) [Example 395, Trans-9-chloro-2,6-dimethyl-1,2,3,3a,4,5,6,10b-octahydropyrrolo[3,4-d][1]benzazepine], for which the maximum response (Emax) on 5HT2B receptors (CHO-K1) was 65%; at 5HT2C receptors (setting [5]) it was 50%. For the same molecule, the 50% effective concentration (EC50) worked out at 80 nM at 5HT2B receptors (EC50, 5-HT2B agonist activity) and 500 nM at 5HT2C receptors (EC50, 5-HT2C agonist activity).

Consider `Brc1ccc2c(c1)[C@@H]1CNC[C@H]1CCN2` (relative stereo) [Example 396, Trans-9-bromo-1,2,3,3a,4,5,6,10b-octahydropyrrolo[3,4-d][1]benzazepine], for which the Emax was found to be 60% at 5HT2B receptors (CHO-K1) and 90% on 5HT2C receptors (setting [5]). For the same molecule, the EC50 was determined as 6 nM at 5HT2B receptors (EC50, 5-HT2B agonist activity) and 30 nM at 5HT2C receptors (EC50, 5-HT2C agonist activity).

For `c1ccc(-c2cccc3c2OCC[C@H]2CNC[C@H]32)cc1` (relative stereo) [Example 397, Trans-7-phenyl-2,3,3a,4,5,10b-hexahydro-1H-[1]benzoxepino[4,5-c]pyrrole], the EC50 at 5HT2B receptors (setting [1]) was more than 10000 nM; on 5HT2C receptors (setting [3]) it was 5 nM. Moreover, the Emax result is “inactive” on 5HT2B receptors (setting [2]) and 95% on 5HT2C receptors (setting [4]).

As to `Fc1ccc(COc2cccc3c2OCC[C@H]2CNC[C@H]32)cc1` (relative stereo) [Example 398, Trans-7-[(4-fluorobenzyl)oxy]-2,3,3a,4,5,10b-hexahydro-1H-[1]benzoxepino[4,5-c]pyrrole], the Emax worked out at 100% on 5HT2B receptors (CHO-K1) and 90% on 5HT2C receptors (setting [5]). In addition, the EC50 came to 3 nM at 5HT2B receptors (EC50, 5-HT2B agonist activity) and 2 nM on 5HT2C receptors (EC50, 5-HT2C agonist activity).

On to `Fc1ccc(-c2cccc3c2OCC[C@H]2CNC[C@H]32)cc1` (relative stereo) [Example 399, Trans-7-(4-fluorophenyl)-2,3,3a,4,5,10b-hexahydro-1H-[1]benzoxepino[4,5-c]pyrrole], for which the 50% effective concentration (EC50) on 5HT2B receptors (setting [1]) was more than 10000 nM; at 5HT2C receptors (setting [3]), 90 nM. Besides, the values for the Emax entry on 5HT2B receptors (setting [2]) and on 5HT2C receptors (setting [4]) were “inactive” and 90%, respectively.

In the case of `CN1C[C@@H]2CCOc3c(-c4ccc(F)cc4)cccc3[C@H]2C1` (relative stereo) [Example 400, Trans-7-(4-fluorophenyl)-2-methyl-2,3,3a,4,5,10b-hexahydro-1H-[1]benzoxepino[4,5-c]pyrrole], the EC50 is more than 10000 nM on 5HT2B receptors (setting [1]) and 800 nM at 5HT2C receptors (setting [3]). The Emax entry at 5HT2B receptors (setting [2]) is “inactive”; at 5HT2C receptors (setting [4]), 70%.

Values taken from patent publication US8846951B2 (AbbVie Inc., priority 2009, dated 2014).
